# Experimental data taken from publication PMC12320299 (Chemical Science, 2025).
# Assay: Tissue and plasma proteome profiling of 1a-treated CT26-bearing mice
# Type: in vivo, BALB/c mice
# Details: 10 mg kg^−1, five days
# From the text: On day five, tumour, liver and blood were harvested two hours after the last injection of 1a. Blood plasma and livers were harvested to obtain insight into systemic drug effects and tumours were collected to obtain information about local effects of the candidate drug.
# For proteomic workup, the fresh tissue samples were quickly rinsed with PBS and shock-frozen in liquid nitrogen. Blood plasma was immediately prepared by centrifugation of the collected blood in ethylenediaminetetraacetic acid (EDTA) tubes. The samples were analysed in technical duplicates due to the expected larger heterogeneity and statistical evaluation was performed using the LIMMA algorithm[73] and gene set variation analysis (GSVA).[74] […] Statistical significance was calculated based on multi-parameter testing-adjusted P-values […].
# Animals. All experiments were carried out with male Balb/c mice according to the regulation of the Ethics Committee for the Care and Use of Laboratory Animals at the Medical University Vienna (BMWF-2022-0.770.291), the guidelines from the Austrian Animal Science Association and the Federation of European Laboratory Animal Science Associations (FELASA). The animals were kept in a pathogen-free conditions, controlled environment with 12 h light–dark cycle with ad libitum access to food and water. Every procedure was done in a laminar airflow […]
# Treatment. CT-26 cells ([…] in 50 μL serum-free medium) were injected subcutaneously (s.c.) into the right flank of ten– to eleven-week-old male Balb/c mice. Three days after cell injection, all compounds (dissolved in 10% DMSO in water) were administered […]
# In case of the proteomic profiling […]
# in water for 5 consecutive days. On the last day, 2 h after the last treatment, mice were euthanized, and blood was collected in an EDTA tube via heart punctation. Tumours and livers were harvested, quickly rinsed with PBS and snap-frozen in liquid nitrogen. Blood plasma was obtained by centrifugation (2×10 min at 900 g). […]
# Sample Processing. All steps were performed on ice. The frozen tissue samples (weights ranging from 8.6– 51.5 mg) were transferred to 15 mL Falcon tubes containing 150 µL sodium deoxycholate lysis buffer (SDC; 0.4 g SDC, 500 μL Tris∙HCl (pH 8.8) in 9.5 mL H2O) and homogenized with a sonication probe (Bandelin Sonoplus HD 2070; Bandelin Electronic GmbH & Co. KG, Berlin, Germany). After sonication the homogenates were centrifuged at 10.000 g for 5 minutes and the resulting supernatant was transferred to new reaction tubes. […]
# EDTA-anticoagulated plasma samples were diluted in SDC buffer at a ratio of 1 : 20, heated at 95 °C for 5 min and stored at –20 °C. The protein concentration of each sample was determined using a BCA assay. […]
compound,measurement,setting,value
"CCC1=C2[O][Ru][O]C2(n2cccn2)c2ccccc2C1=O.Cc1ccc(C(C)C)cc1 (stereo not shown) [Compound 1a, [(3-ethyl-4-oxo-(pyrazolyl)-dihydronaphthalene)(cymene)ruthenium(II)]]",EGFR level in tumour,,down-regulated
same,"statistically significant regulations, plasma",of 285 identified,79
same,"statistically significantly regulated proteins, liver",of 2770 identified,14
same,"statistically significant regulations, tumour",of 3867 identified,5
